# Laboratory results taken from US11360080B2, “AhR-ROR-γt complex as a biomarker and therapeutic target for autoimmune disease and IL-17A-associated disease” (NATIONAL HEALTH RESEARCH INSTITUTES, priority 2018, dated 2022).
# Counter-ions that a name gives are not always drawn.
# Assays:
# GLK−IQGAP1 complex = molecular target: T1, GLK−IQGAP1 complex (Mus musculus, UniProt Q99JP0); assay: In situ PLA in lung tissues of mice of the LLC/luc metastatic lung cancer model; format: in vivo
# T1 construct: from tissue; host or cells: mouse lung tissue (LLC/luc metastatic lung cancer model)
# T1 sequence (Q99JP0 whole entry, one chain of several): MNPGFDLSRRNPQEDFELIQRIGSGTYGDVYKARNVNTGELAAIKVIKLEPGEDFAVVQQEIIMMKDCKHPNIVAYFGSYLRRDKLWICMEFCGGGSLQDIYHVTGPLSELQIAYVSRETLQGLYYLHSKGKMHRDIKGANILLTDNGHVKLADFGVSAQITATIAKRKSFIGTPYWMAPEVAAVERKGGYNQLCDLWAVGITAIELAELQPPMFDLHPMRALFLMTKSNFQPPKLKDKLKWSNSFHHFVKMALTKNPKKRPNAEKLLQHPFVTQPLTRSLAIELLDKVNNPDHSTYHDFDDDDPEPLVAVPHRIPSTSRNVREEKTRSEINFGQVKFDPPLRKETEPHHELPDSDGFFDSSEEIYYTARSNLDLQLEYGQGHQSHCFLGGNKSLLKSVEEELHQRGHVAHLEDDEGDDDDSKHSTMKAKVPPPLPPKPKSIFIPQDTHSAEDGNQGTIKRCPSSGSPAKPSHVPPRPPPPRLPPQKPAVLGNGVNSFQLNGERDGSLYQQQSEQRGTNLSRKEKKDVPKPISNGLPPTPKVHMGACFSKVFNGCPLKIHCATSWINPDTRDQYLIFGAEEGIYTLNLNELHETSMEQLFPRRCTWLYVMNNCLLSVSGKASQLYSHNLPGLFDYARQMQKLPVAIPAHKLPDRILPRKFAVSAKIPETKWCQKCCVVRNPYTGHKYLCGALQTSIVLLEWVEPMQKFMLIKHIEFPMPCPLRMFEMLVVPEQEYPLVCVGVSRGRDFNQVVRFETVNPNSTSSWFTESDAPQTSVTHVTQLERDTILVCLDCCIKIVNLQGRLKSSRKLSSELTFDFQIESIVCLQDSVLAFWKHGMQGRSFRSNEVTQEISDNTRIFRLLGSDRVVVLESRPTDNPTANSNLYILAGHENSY
# From the text: (§1) (A) The molecular docking of GLK kinase domain structure with C1 (verteporfin). A three-dimensional structure model depicts the binding of C1 to the predicted GLK kinase domain containing phosphorylated Ser-170. The putative binding affinity was −7.4 kcal/mol. (B) The molecular docking of GLK kinase domain structure with C2 (alexidine dihydrochloride). A three-dimensional structure model depicts the binding of C2 to the predicted GLK kinase domain containing phosphorylated Ser-170. The putative binding affinity was −7.0 kcal/mol. (C) Co-immunoprecipitation (co-IP) of Flag-tagged GLK and GFP-fusion GLK using lysates of HEK293T cells co-transfected with Flag-GLK and GFP-GLK plasmids. Cells were treated with C1 (verteporfin) or C2 (alexidine dihydrochloride). (D) Administration of the GLK inhibitor C1 (0.556 nmole/g) or C2 (0.085 nmole/g) every 3 days for 30 days in the LLC/luc metastatic lung cancer mouse model. (E) The luciferase activity in mice treated with C1 (verteporfin), C2 (alexidine dihydrochloride), or vehicle was detected by IVIS Spectrum. (F) Luminescent intensity of photons emitted from LLC/luc cells in the images in (e) was quantified. (G) Representative immunohistochemistry of H&E in lung tissues from mice treated with C1 (verteporfin), C2, or vehicle. Scale bar, 0.5 cm. (H) In situ PLA assays of the interaction between GLK and IQGAP1 (upper panel) or phosphorylated IQGAP1 Ser-480 (lower panel) in lung tissues from mice treated with C1 (verteporfin), C2 (alexidine dihydrochloride), or vehicle in the LLC/luc metastatic lung cancer mouse model. Original magnification, ×40.
# For experiments using human pulmonary tissues, tissue sections were deparafinized, antigen retrieved, and nonspecific-binding blocked, followed by in situ PLA assays using primary antibodies for IQGAP1 (1:4,000, CUSABIO) plus either GLK (1:3,000, mAb clone C3) or phospho-IQGAP1 Ser-480 (1:2,000, Allbio Science). The monoclonal antibody for phosphorylated IQGAP1 Ser-480 was generated by immunization of a mouse with phospho-peptides (human IQGAP1 epitope: ^473NTVWKQL[pS] SSVTGLT^487; SEQ ID NO: 32). The tissue sections were then incubated with species-specific secondary antibodies conjugated with oligonucleotides ([…]), followed by ligation and amplification reactions. The number of PLA signals for GLK−IQGAP1 complex or phosphorylated IQGAP1 per tissue (3.14 mm^2) was counted.
# LLC/luc cells = assay: LLC/luc metastatic lung cancer mouse model; format: in vivo; conditions: C1 0.556 nmole/g, C2 0.085 nmole/g i.v. every 3 days for 30 days
# From the text: as §1, with “×40. We studied whether GLK inhibitors also suppress cancer cell migration. […] Moreover, both C1 (verteporfin) and C2 (alexidine dihydrochloride) treatments suppressed tumor growth in the xenograft mouse model using TC-1 lung cancer cells (FIG. 15). To study whether GLK deficiency results in a reduction of lung cancer metastasis, we used a metastatic Lewis lung carcinoma (LLC) mouse model by tail vein injection of luciferase-expressing LLC (LLC/luc) cells. We identified two GLK inhibitors (verteporfin and alexidine dihydrochloride)) using cell-based assays and in vitro kinase assays. […] The dimerization of Flag-tagged GLK protein and GFP-GLK fusion protein was indeed blocked by the C1 (verteporfin) treatment (FIG. 16C). We treated the LLC/luc cells-containing mice with the GLK inhibitor C1 (verteporfin) or C2 (alexidine dihydrochloride) by intravenous injection every 3 days for 30 days (FIG. 16D). The luciferase activity of LLC/luc cells in the mice was detected by In Vivo Imaging System. The excised lungs were weighed and subjected to H&E staining. […] Inhibition of kinase activity of GLK (MAP4K3) or other MAP4Ks was determined by in vitro kinase assays using myelin basic protein (MBP) as a substrate. […]” for “×40.”
IQGAP1 (Ser-480) phosphorylation in the lung tissues (GLK−IQGAP1 complex),interaction between GLK and IQGAP1 in the lung tissues (GLK−IQGAP1 complex),Compound,cancer colony in lung (histology) (LLC/luc cells),luciferase activity of LLC/luc cells in the lung (LLC/luc cells)
inhibited,inhibited,"C=Cc1c(C)c2cc3nc(cc4[nH]c(cc5nc(cc1[nH]2)C(C)=C5CCC(=O)O)c(CCC(=O)OC)c4C)[C@@]1(C)C3=CC=C(C(=O)OC)[C@H]1C(=O)OC [C1, verteporfin]",reduction,reduced
inhibited,inhibited,"CCCCC(CC)CNC(=N)NC(=N)NCCCCCCNC(=N)NC(=N)NCC(CC)CCCC (centres unmarked) [C2, alexidine dihydrochloride]",reduction,reduced
